Laboratory results as given in US8604217B2, “Compound, a process for its preparation, a pharmaceutical composition, use of a compound, a method for modulating or regulating serine/threonine kinases and a serine/threonine kinases modulating agent” (Selvita S.A., priority 2009, dated 2013).
Read-outs that look alike come from different tables or passages of the source. Blank lines part the entries; values can stand above or below the compound they belong to.

Experiments:
p-4EBP1 (Ser65) = assay: In vitro inhibition of protein phosphorylation, Western blot in MV4-11 cells; format: cell-based, human; settings: for IC50: Homo sapiens, MV4-11, MV411 cells, read-out: calculated cellular IC50 for biomarker inhibition, p-4EBP1 (Ser65)
Description: (§1) The inventors have investigated the efficacy of PIM-1 kinase inhibition by compound 20 on MV4-11 cells 4 h and 24 h after the treatment. The efficacy of PIM-1 inhibition was evaluated basing on the changes in the expression and phosphorylation levels of its downstream target proteins, using Western blot (FIG. 1). Sunitinib was used as a positive control. After densitometric quantification of the obtained results, cellular IC50 was assessed (Table 6). […] PIM-1 and tubulin protein levels were assessed as controls.

c-MYC = assay: as above; format: cell-based, human; settings: for IC50: Homo sapiens, MV4-11, MV411 cells, read-out: calculated cellular IC50 for biomarker inhibition, c-MYC
Description: as §1

Plk1(h) = Plk1(h) (Homo sapiens (Human), UniProt P53350); assay: KinaseProfiler kinase panel; format: biochemical
PKCα(h) = PKCα(h) (Homo sapiens (Human), UniProt P17252); assay: KinaseProfiler kinase panel; format: biochemical
VRK2(h) = VRK2(h) (Homo sapiens (Human), UniProt Q86Y07); assay: KinaseProfiler kinase panel; format: biochemical
EphA5(h) = EphA5(h) (Homo sapiens (Human), UniProt P54756); assay: KinaseProfiler kinase panel; format: biochemical
NLK(h) = NLK(h) (Homo sapiens (Human), UniProt Q9UBE8); assay: KinaseProfiler kinase panel; format: biochemical
GSK3β(h) = GSK3β(h) (Homo sapiens (Human), UniProt P49841); assay: KinaseProfiler kinase panel; format: biochemical
FAK(h) = FAK(h) (Homo sapiens (Human), UniProt Q05397); assay: KinaseProfiler kinase panel; format: biochemical
PAK4(h) = PAK4(h) (Homo sapiens (Human), UniProt O96013); assay: KinaseProfiler kinase panel; format: biochemical
Met(M1268T)(h) = Met(M1268T)(h) (Homo sapiens (Human), UniProt P08581, M1268T); assay: KinaseProfiler kinase panel; format: biochemical
IRAK4(h) = IRAK4(h) (Homo sapiens (Human), UniProt Q9NWZ3); assay: KinaseProfiler kinase panel; format: biochemical
Src(T341M)(h) = Src(T341M)(h) (Homo sapiens (Human), UniProt P12931, T341M); assay: KinaseProfiler kinase panel; format: biochemical
Tec(h) activated = Tec(h) activated (Homo sapiens (Human), UniProt P42680); assay: KinaseProfiler kinase panel; format: biochemical
ALK4(h) = ALK4(h) (Homo sapiens (Human), UniProt P36896); assay: KinaseProfiler kinase panel; format: biochemical
PAR-1Bα(h) = PAR-1Bα(h) (Homo sapiens (Human), UniProt Q7KZI7); assay: KinaseProfiler kinase panel; format: biochemical
PKCδ(h) = PKCδ(h) (Homo sapiens (Human), UniProt Q05655); assay: KinaseProfiler kinase panel; format: biochemical
KDR(h) = KDR(h) (Homo sapiens (Human), UniProt P35968); assay: KinaseProfiler kinase panel; format: biochemical
PTK5(h) = PTK5(h) (Homo sapiens (Human), UniProt P42685); assay: KinaseProfiler kinase panel; format: biochemical
SAPK3(h) = SAPK3(h) (Homo sapiens (Human), UniProt P53778); assay: KinaseProfiler kinase panel; format: biochemical
MSK2(h) = MSK2(h) (Homo sapiens (Human), UniProt O75676); assay: KinaseProfiler kinase panel; format: biochemical
Abl (M351T)(h) = Abl (M351T)(h) (Homo sapiens (Human), UniProt P00519, M351T); assay: KinaseProfiler kinase panel; format: biochemical
MAPKAP-K3(h) = MAPKAP-K3(h) (Homo sapiens (Human), UniProt Q16644); assay: KinaseProfiler kinase panel; format: biochemical
Rse(h) = Rse(h) (Homo sapiens (Human), UniProt Q06418); assay: KinaseProfiler kinase panel; format: biochemical
Snk(h) = Snk(h) (Homo sapiens (Human), UniProt Q9NYY3); assay: KinaseProfiler kinase panel; format: biochemical
CDK9/cyclin T1(h) = CDK9/cyclin T1(h) (Homo sapiens (Human), UniProt P50750); assay: KinaseProfiler kinase panel; format: biochemical
ZIPK(h) = ZIPK(h) (Homo sapiens (Human), UniProt O43293); assay: KinaseProfiler kinase panel; format: biochemical
ROCK-I(h) = ROCK-I(h) (Homo sapiens (Human), UniProt Q13464); assay: KinaseProfiler kinase panel; format: biochemical
HIPK3(h) = HIPK3(h) (Homo sapiens (Human), UniProt Q9H422); assay: KinaseProfiler kinase panel; format: biochemical
DYRK2(h) = DYRK2(h) (Homo sapiens (Human), UniProt Q92630); assay: KinaseProfiler kinase panel; format: biochemical
DMPK(h) = DMPK(h) (Homo sapiens (Human), UniProt Q09013); assay: KinaseProfiler kinase panel; format: biochemical
Hck(h) = Hck(h) (Homo sapiens (Human), UniProt P08631); assay: KinaseProfiler kinase panel; format: biochemical
Src(1-530)(h) = Src(1-530)(h) (Homo sapiens (Human), UniProt P12931); assay: KinaseProfiler kinase panel; format: biochemical
PDGFRα(V561D)(h) = PDGFRα(V561D)(h) (Homo sapiens (Human), UniProt P16234, V561D); assay: KinaseProfiler kinase panel; format: biochemical
FGFR4(h) = FGFR4(h) (Homo sapiens (Human), UniProt P22455); assay: KinaseProfiler kinase panel; format: biochemical
FGFR4(h), sequence (P22455 22-802): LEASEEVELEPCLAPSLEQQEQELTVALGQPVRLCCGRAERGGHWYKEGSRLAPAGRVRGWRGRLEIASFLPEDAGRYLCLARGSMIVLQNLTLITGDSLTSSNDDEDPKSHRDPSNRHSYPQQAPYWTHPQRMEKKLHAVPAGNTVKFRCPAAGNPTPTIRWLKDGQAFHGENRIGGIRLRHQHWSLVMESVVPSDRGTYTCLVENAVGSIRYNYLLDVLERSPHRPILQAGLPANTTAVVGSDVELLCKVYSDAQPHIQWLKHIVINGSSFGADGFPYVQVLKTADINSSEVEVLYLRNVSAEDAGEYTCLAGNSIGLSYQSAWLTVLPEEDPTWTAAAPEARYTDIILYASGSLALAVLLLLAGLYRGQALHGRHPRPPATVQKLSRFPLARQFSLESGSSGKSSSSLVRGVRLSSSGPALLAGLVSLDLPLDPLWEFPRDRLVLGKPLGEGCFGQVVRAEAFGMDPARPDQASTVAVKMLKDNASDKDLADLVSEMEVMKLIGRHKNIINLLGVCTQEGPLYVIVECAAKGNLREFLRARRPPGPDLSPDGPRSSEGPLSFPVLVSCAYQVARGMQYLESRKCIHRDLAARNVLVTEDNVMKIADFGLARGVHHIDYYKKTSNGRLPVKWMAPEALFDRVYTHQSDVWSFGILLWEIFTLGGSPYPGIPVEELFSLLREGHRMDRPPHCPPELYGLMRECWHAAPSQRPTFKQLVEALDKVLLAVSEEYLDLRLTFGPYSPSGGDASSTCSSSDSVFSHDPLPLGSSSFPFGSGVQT

PAK4(h), sequence (O96013 whole entry): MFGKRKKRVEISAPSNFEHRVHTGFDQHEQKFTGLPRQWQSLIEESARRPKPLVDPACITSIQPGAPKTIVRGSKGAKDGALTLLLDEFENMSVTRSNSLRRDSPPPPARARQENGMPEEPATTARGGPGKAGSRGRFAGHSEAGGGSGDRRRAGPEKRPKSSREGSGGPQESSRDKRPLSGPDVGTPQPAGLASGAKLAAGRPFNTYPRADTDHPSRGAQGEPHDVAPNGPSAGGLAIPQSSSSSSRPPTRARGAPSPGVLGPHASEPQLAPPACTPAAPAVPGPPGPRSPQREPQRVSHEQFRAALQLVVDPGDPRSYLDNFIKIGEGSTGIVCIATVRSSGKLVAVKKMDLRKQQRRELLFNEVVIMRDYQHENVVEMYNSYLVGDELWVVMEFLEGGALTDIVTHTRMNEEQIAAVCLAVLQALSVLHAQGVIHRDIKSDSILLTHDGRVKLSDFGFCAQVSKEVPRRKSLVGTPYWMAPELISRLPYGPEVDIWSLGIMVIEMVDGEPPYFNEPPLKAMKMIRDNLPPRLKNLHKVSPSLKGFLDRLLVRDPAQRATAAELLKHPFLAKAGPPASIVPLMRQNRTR
Rse(h), sequence (Q06418 41-890): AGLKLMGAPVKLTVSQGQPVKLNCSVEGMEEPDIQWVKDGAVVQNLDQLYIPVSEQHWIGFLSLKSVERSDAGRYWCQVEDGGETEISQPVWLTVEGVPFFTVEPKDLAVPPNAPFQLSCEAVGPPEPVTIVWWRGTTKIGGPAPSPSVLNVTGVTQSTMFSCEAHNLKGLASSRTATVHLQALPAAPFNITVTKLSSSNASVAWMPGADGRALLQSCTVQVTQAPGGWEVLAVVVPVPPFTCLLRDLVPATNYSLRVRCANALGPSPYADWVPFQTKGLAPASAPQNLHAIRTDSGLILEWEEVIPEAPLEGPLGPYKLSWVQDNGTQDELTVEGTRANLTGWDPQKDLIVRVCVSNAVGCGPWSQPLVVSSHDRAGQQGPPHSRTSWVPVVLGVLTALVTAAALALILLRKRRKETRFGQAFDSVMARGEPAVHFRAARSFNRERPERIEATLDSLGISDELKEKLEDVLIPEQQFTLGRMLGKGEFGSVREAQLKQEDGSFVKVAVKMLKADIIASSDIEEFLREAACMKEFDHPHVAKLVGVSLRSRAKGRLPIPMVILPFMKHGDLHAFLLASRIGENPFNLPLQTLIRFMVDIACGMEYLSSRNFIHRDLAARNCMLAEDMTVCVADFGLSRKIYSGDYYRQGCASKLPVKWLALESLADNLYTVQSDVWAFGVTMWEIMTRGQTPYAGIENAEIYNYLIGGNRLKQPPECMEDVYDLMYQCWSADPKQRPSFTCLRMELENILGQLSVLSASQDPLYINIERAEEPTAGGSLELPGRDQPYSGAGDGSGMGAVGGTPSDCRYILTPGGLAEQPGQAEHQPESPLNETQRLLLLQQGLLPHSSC
ROCK-I(h), sequence (Q13464 whole entry): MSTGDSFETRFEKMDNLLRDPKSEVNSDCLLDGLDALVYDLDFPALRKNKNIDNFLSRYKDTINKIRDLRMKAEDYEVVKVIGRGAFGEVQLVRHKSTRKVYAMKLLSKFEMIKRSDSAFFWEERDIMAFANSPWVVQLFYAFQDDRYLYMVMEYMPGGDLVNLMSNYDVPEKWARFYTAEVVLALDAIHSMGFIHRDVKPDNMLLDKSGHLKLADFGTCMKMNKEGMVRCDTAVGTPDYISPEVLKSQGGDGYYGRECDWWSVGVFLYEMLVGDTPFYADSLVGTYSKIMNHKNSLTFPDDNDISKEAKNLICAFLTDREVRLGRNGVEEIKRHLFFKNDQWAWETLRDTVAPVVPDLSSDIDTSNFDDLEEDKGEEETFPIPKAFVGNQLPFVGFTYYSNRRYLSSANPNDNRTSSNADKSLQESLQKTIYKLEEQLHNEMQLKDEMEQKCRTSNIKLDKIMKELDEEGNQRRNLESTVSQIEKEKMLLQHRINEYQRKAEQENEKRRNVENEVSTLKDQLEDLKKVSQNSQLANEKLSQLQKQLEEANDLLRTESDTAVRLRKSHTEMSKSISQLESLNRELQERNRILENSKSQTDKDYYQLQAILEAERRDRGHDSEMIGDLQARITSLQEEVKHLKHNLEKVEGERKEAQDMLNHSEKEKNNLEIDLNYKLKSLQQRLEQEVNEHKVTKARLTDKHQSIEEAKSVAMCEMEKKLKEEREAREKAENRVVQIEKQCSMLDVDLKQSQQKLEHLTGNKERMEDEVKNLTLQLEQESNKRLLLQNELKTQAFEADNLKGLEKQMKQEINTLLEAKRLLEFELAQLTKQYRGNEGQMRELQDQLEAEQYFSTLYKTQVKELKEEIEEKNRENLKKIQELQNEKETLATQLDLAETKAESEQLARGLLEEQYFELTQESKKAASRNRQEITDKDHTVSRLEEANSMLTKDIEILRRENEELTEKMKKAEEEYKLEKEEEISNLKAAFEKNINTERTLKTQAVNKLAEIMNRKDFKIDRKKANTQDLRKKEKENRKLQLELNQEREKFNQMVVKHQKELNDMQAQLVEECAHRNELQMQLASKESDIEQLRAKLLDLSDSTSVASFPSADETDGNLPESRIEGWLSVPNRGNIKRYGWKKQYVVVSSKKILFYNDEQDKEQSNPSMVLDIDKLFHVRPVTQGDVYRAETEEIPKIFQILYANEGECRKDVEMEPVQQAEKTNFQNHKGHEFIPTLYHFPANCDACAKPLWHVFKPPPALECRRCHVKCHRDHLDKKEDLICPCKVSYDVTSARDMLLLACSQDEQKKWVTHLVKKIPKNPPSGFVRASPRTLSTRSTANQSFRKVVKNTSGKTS
ZIPK(h), sequence (O43293 whole entry): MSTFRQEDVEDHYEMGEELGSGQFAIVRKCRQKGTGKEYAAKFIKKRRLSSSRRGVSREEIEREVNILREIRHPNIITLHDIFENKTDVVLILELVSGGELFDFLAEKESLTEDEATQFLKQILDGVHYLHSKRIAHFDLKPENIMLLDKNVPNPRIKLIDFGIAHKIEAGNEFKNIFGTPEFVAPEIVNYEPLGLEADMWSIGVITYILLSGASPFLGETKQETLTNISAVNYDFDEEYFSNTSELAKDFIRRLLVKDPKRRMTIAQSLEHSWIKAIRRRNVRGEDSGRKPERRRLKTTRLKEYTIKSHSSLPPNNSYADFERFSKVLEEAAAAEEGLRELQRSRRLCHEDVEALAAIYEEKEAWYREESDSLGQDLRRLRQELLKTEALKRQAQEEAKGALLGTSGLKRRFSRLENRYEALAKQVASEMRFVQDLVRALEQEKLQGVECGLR
DMPK(h), sequence (Q09013 whole entry): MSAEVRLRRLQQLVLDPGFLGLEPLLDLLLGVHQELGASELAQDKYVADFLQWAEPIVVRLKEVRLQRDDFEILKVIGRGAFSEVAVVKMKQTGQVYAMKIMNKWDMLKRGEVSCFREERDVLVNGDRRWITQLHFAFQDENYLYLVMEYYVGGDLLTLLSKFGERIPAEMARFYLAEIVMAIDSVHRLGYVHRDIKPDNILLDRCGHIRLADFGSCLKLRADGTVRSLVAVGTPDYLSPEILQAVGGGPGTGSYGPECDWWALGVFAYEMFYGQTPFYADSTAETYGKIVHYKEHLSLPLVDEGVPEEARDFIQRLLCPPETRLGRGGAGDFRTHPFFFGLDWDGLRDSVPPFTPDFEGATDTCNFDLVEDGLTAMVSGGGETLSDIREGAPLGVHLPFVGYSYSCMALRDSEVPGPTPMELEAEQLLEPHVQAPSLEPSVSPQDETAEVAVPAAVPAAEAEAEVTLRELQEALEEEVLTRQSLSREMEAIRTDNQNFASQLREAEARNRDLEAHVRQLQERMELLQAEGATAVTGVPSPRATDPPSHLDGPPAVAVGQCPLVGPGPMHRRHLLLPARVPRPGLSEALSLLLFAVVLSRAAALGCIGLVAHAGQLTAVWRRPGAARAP
SAPK3(h), sequence (P53778 whole entry): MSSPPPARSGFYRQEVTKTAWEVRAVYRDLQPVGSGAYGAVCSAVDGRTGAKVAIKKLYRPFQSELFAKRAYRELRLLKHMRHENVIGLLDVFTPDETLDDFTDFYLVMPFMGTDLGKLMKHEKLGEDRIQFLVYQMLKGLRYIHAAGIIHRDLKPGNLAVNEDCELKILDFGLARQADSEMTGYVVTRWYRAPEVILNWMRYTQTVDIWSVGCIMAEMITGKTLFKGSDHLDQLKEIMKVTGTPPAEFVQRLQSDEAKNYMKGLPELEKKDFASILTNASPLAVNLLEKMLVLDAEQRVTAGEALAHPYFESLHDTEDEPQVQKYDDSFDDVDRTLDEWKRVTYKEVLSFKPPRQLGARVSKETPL

SMILES: Brc1c(Br)c(Br)c2[nH]c(N3CCNCC3)nc2c1Br [Compound 20, 4,5,6,7-tetrabromo-2-(piperazin-1-yl)-1H-benzo[d]imidazole]
IC50 (p-4EBP1 (Ser65); 4 h treatment): 3.13 µM
IC50 (p-4EBP1 (Ser65); 24 h treatment): 1.12 µM
inhibition of p-4EBP1(Ser65) (Western blot) (p-4EBP1 (Ser65); MV4-11 cells, 4 h and 24 h): dose- and time-dependent inhibition
IC50 (c-MYC; 4 h treatment): 0.89 µM
IC50 (c-MYC; 24 h treatment): 2.03 µM
inhibition of c-MYC (Western blot) (c-MYC; MV4-11 cells, after 4 h and 24 h): dose dependent inhibition

remaining activity at 1 µM (Plk1(h)): 117%
remaining activity at 1 µM (PKCα(h)): 95%
remaining activity at 1 µM (VRK2(h)): 103%
remaining activity at 1 µM (EphA5(h)): 99%
remaining activity at 1 µM (NLK(h)): 85%
remaining activity at 1 µM (GSK3β(h)): 66%
remaining activity at 1 µM (FAK(h)): 94%
remaining activity at 1 µM (PAK4(h)): 79%
remaining activity at 1 µM (Met(M1268T)(h)): 70%
remaining activity at 1 µM (IRAK4(h)): 52%
remaining activity at 1 µM (Src(T341M)(h)): 40%
remaining activity at 1 µM (Tec(h) activated): 107%
remaining activity at 1 µM (ALK4(h)): 112%
remaining activity at 1 µM (PAR-1Bα(h)): 85%
remaining activity at 1 µM (PKCδ(h)): 89%
remaining activity at 1 µM (KDR(h)): 28%
remaining activity at 1 µM (PTK5(h)): 99%
remaining activity at 1 µM (SAPK3(h)): 68%
remaining activity at 1 µM (MSK2(h)): 16%
remaining activity at 1 µM (Abl (M351T)(h)): 95%
remaining activity at 1 µM (MAPKAP-K3(h)): 106%
remaining activity at 1 µM (Rse(h)): 105%
remaining activity at 1 µM (Snk(h)): 90%
remaining activity at 1 µM (CDK9/cyclin T1(h)): 27%
remaining activity at 1 µM (ZIPK(h)): 95%
remaining activity at 1 µM (ROCK-I(h)): 90%
remaining activity at 1 µM (HIPK3(h)): -1%
remaining activity at 1 µM (DYRK2(h)): 45%
remaining activity at 1 µM (DMPK(h)): 97%
remaining activity at 1 µM (Hck(h)): 79%
remaining activity at 1 µM (Src(1-530)(h)): 65%
remaining activity at 1 µM (PDGFRα(V561D)(h)): 68%
remaining activity at 1 µM (FGFR4(h)): 94%
SMILES: CCn1c(N2CCNCC2)nc2c(Br)c(Br)c(Br)c(Br)c21 [Compound 416, 4,5,6,7-tetrabromo-1-ethyl-2-(piperazin-1-yl)-1H-benzo[d]imidazole]
